Measurements taken from PubChem BioAssay AID743233 (The Scripps Research Institute Molecular Screening Center, 2013).
Calls of active or inactive are those of the source. How the calls were made is not given here.

Tested on: Galpha16-expressing cells, calcium fluorescence, counterscreen
Assay: Ga16 cell calcium inhibition, concentration series – fluorescence, dose response, counter-screen for TAAR1 agonist project, late-stage follow-up (AID 743233)

SMILES | IC50
O=C(Nc1cccc2ccccc12)N1CCc2ccccc2C1 | > 29.9 µM (inactive)
CCOC(=O)C(NC(C)=O)(N1CCc2ccccc2C1)C(F)(F)F (stereo unspecified) | > 29.9 µM (inactive)
c1ccc(CCN2CN(CCCN3CCOCC3)c3nc4ccccc4n3C2)cc1 | > 29.9 µM (inactive)
CC(=NCCc1ccccc1)C1CCOC1=O (stereo unspecified) | > 29.9 µM (inactive)
NC(N)=NN=Cc1c(Cl)cccc1Cl | > 29.9 µM (inactive)
CC(=C1C(=O)c2ccccc2C1=O)N1CCc2ccccc2C1 | > 29.9 µM (inactive)
O=C(CCCCl)N1CCc2[nH]c3ccccc3c2C1 | > 29.9 µM (inactive)
O=C(Nc1ccncc1)Nc1ccc(F)cc1 | > 29.9 µM (inactive)
CCOC(=O)C(NC(=O)CC)(N1CCc2ccccc2C1)C(F)(F)F (stereo unspecified) | > 29.9 µM (inactive)
CC1(C)CCCN(C(=O)c2coc(=O)c(Br)c2)C1 | > 29.9 µM (inactive)
c1ccc(CCn2nnnc2C(c2cccs2)N2CCN(Cc3ccc4c(c3)OCO4)CC2)cc1 (stereo unspecified) | > 29.9 µM (inactive)
O=C(CCN1CCc2ccccc2CC1)c1ccc2c(c1)OCCO2 | > 29.9 µM (inactive)
OCCNc1nc(Nc2cccc(O)c2)nc2ccccc12 | > 29.9 µM (inactive)
O=C(CCN1CCC(c2ccccc2)C1)c1ccc2c(c1)OCCO2 (stereo unspecified) | > 29.9 µM (inactive)
Cc1ccc(NC(=O)CCN2CCc3ccccc3C2)cc1 | > 29.9 µM (inactive)
c1ccc2c(c1)CCN(c1nc3cc4c(cc3s1)OCO4)C2 | > 29.9 µM (inactive)

SMILES | IC50
NCc1c(O)ccc2ccccc12 | > 29.9 µM (inactive)
O=C(C(=O)N1CCc2ccccc2C1)c1cn(CC(=O)N2CCCCC2)c2ccccc12 | > 29.9 µM (inactive)
c1ccc2c3c([nH]c2c1)CCNC3 | > 29.9 µM (inactive)
NC(N)=Nc1cc2ccccc2c2ccccc12 | > 29.9 µM (inactive)
Cc1cc(N(C)C)nc(Nc2ccccc2)n1 | > 29.9 µM (inactive)
O=C(Nc1cccnc1)Nc1cccc(F)c1 | > 29.9 µM (inactive)
O=C(Nc1ccccc1)Nc1ccncc1 | > 29.9 µM (inactive)
Cc1[nH]c2ccccc2c1CN1CCc2ccccc2C1 | > 29.9 µM (inactive)
Nc1nc(Nc2ccccc2)nc2ccccc12 | > 29.9 µM (inactive)
COc1cc(C(=O)CCN2CCC(c3ccccc3)C2)cc(OC)c1OC (stereo unspecified) | > 29.9 µM (inactive)
OCCNc1nc(Nc2ccc(O)cc2)nc2ccccc12 | > 29.9 µM (inactive)
O=c1[nH]cc(NCCc2ccccc2)c(=O)[nH]1 | > 29.9 µM (inactive)
Cc1cc(C)n(C(CC(=O)N2CCc3ccccc3C2)C(=O)O)n1 (stereo unspecified) | > 29.9 µM (inactive)
Nc1nc(Nc2cccc(F)c2)nc2ccccc12 | > 29.9 µM (inactive)
O=C(CCN1CCC(c2ccccc2)C1)c1cccs1 (stereo unspecified) | > 29.9 µM (inactive)
